From paper PMC6117704, “Novel Natural Angiotensin Converting Enzyme (ACE)-Inhibitory Peptides Derived from Sea Cucumber-Modified Hydrolysates by Adding Exogenous Proline and a Study of Their Structure–Activity Relationship” (Marine Drugs, 2018)
Read-outs that look alike come from different tables or passages of the source. Values belong to the compound of their own block, whether it stands above or below them. Peptide text beside a SMILES is read from it.

Tests used:
rabbit-lung ACE = biological target: T1, rabbit-lung ACE (Oryctolagus cuniculus, UniProt P12822); assay: ACE-inhibitory activity of synthetic peptides; format: biochemical; details: synthesized peptides; HHL substrate (8.3 mM Hip-His-Leu in 50 mM sodium borate, 0.5 M NaCl, pH 8.3), ACE 25 mU/mL, pre-incubation 37 °C 10 min, 60 min, UV 228 nm; mean ± SD (n = 3)
T1 construct: rabbit-lung ACE and Sephadex G-15 were purchased from Sigma Chemical Ltd; purchased Sigma Chemical Ltd (St. Louis, MO, USA); host or cells: rabbit lung tissue
T1 sequence (P12822 34-1310): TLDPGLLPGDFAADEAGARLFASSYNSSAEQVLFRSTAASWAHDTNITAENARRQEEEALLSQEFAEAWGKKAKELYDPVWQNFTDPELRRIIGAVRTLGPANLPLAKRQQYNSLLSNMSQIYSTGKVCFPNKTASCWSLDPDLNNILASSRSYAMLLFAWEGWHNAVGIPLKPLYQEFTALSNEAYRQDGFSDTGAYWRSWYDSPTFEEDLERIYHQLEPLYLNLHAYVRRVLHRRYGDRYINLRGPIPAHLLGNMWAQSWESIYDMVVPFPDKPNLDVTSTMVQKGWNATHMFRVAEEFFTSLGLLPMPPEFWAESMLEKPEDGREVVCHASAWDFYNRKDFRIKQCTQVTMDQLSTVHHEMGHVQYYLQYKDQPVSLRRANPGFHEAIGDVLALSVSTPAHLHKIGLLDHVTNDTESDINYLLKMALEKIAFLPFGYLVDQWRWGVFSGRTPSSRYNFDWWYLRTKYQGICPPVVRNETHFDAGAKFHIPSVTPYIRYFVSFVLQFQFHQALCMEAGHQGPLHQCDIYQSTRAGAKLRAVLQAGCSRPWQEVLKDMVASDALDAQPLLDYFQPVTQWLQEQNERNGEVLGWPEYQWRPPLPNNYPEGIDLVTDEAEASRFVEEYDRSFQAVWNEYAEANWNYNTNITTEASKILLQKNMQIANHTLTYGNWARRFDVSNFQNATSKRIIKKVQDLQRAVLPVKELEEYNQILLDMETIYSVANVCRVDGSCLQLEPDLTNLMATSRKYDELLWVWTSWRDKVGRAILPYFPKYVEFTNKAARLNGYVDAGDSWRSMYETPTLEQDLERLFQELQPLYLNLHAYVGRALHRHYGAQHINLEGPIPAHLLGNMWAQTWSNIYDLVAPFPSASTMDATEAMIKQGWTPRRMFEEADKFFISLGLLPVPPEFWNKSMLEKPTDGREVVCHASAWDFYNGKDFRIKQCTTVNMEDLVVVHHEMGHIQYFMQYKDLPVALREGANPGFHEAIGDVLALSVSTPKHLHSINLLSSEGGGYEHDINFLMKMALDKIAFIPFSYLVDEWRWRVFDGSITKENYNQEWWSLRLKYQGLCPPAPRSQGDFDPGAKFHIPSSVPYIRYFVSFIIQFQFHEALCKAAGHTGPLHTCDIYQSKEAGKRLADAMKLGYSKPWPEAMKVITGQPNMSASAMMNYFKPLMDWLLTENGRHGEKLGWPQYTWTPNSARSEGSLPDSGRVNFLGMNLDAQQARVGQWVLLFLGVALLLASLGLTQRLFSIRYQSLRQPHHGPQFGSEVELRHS
Description: Sea cucumber (Acaudina molpadioidea) was purchased from a local market (Qingdao, China) and its water content was determined to be 12.65% per 20 g on average. Hippuryl histidyl leucine (HHL), rabbit-lung ACE and Sephadex G-15 were purchased from Sigma Chemical Ltd (St. Louis, MO, USA). Papain (from papaya) and trypsin (from bovine sources) were purchased from Nanning Pangbo Biological Engineering Ltd (Nanning, China). O-Pthaldialdehyde (OPA) was purchased from Beijing Soularbio Technology Ltd. (Beijing, China). Proline (PubChem CID 145742), valine (PubChem CID 6287), tyrosine (PubChem CID 6057), tryptophan (PubChem CID 6305), leucine (PubChem CID 6106) and phenylalanine (PubChem CID 6140) were purchased from Sinopharm Chemical Reagent Ltd. (Shanghai, China). All other chemicals were obtained from local commercial sources and were of the highest purity available.
The ACE-inhibitory activity of the hydrolysates was measured according to a previously reported protocol with slight modifications. Briefly, a sample solution with 40 μL of ACE solution (25 mU/mL) was pre-incubated at 37 °C for 10 min. After this, the mixture was incubated with 50 μL of the substrate (8.3 mM Hip-His-Leu in 50 mM sodium borate buffer containing 0.5 M NaCl at pH of 8.3) for 60 min at the same temperature. The reaction was terminated by the addition of 1.0 M HCl (200 μL). The absorbance of hippuric acid in the incubated solution was determined at 228 nm using a UV-spectrophotometer (UV-2550, Shimadzu, Kyoto, Japan). The IC50 value was defined as the concentration of inhibitor that was needed to inhibit 50% of the ACE activity.
The molecular weights of peptides in the filtered hydrolysates were analyzed by MALDI-TOF (TOF 4800, Micromass Company, Manchester, UK). The amino acid sequences were determined in the positive ion mode by de novo sequencing. Subsequently, the peptides were synthesized using the solid phase method and purified by HPLC (ChinaPeptides Co. Ltd., Shanghai, China).

ACE = test system: ACE; design: method as in 8 sources, ref [4]; PMID 29426427; doi:10.1016/j.foodchem.2018.01.047; 4. Sangsawad P. Roytrakul S. Choowongkomon K. Kitts D.D. Chen X.M. Meng G. Lichan E. Yongsawatdigul J. Transepithelial transport across Caco-2 cell monolayers of angiotensin converting enzyme (ACE) in ||| ref [20] = [20]; PMID 29426427; doi:10.1016/j.jff.2016.12.005; 20. Sangsawad P. Roytrakul S. Yongsawatdigul J. Angiotensin converting enzyme (ACE) inhibitory peptides derived from the simulated in vitro gastrointestinal digestion of cooked chicken breast J. Funct ||| ref [21] = [21]; doi:10.1016/j.idairyj.2006.05.011; 21. Otte J. Shalaby S.M. Zakora M. Pripp A.H. El-Shabrawy S.A. Angiotensin-converting enzyme inhibitory activity of milk protein hydrolysates: Effect of substrate, enzyme and time of hydrolysis Int. D ||| ref [11] = [11]; doi:10.1080/10942912.2011.642048; 11. Sun H. Li T.J. Zhao X.H. ACE inhibition and enzymatic resistance in vitro of a casein hydrolysate subjected to plastein reaction in the presence of extrinsic proline and ethanol- or methanol-eater ||| ref [26] = [26]; PMID 24054237; doi:10.1016/j.foodchem.2013.07.067; 26. Ngo D.H. Ryu B. Kim S.K. Active peptides from skate ( Okamejei kenojei ) skin gelatin diminish angiotensin-I converting enzyme activity and intracellular free radical-mediated oxidation Food Chem. ||| ...; details: cited from earlier work

- IC50 (rabbit-lung ACE): 12.7 ± 1.5 µM
Compound: CC(C)[C@H](NC(=O)[C@@H](N)CC(N)=O)C(=O)N[C@@H](C)C(=O)O [NVA] (H-Asn-Val-Ala-OH)

Compound: MVGSAPGVL
- ACE-inhibitory activity (in words) (ACE; ref [26]): high ACE-inhibitory activity

Compound: AGPPGSDGQPGAK
- IC50 (ACE; ref [38]): 420 ± 20 µM

- IC50 (rabbit-lung ACE): 8.18 ± 0.24 µM
Compound: CC(C)[C@H](NC(=O)[C@H](CC(N)=O)NC(=O)[C@@H]1CCCN1)C(=O)N[C@@H](C)C(=O)O [PNVA] (H-PNVA-OH)

Compound: KPLL
- ACE-inhibitory activity (in words) (ACE; ref [20]): high ACE-inhibitory activity

- IC50 (rabbit-lung ACE): 13.2 ± 0.39 µM
Compound: CC(C)C[C@H](NC(=O)[C@H](CC(N)=O)NC(=O)[C@@H]1CCCN1)C(=O)NCC(=O)O [PNLG] (H-PNLG-OH)

Compound: LGPLGHQ
- ACE-inhibitory activity (in words) (ACE; ref [26]): high ACE-inhibitory activity

- IC50 (rabbit-lung ACE): 17.4 ± 0.89 µM
Compound: CC(C)C[C@H](NC(=O)[C@@H](N)CC(N)=O)C(=O)NCC(=O)O [NLG] (H-Asn-Leu-Gly-OH)

Compound: VYPFPGPIPNSLPQNIPP
- ACE-inhibitory activity (in words) (ACE; ref [21]): high ACE-inhibitory activity
